Assays:
Test in all cases: competitive isoTOP-ABPP
Type in all cases: binding
[1] = molecular target: T1, POLR2L DNA-directed RNA polymerases I, II, and III subunit (Homo sapiens, UniProt P62875); details: 50 uM, in vitro; for isoTOP-ABPP ratio (R) at liganded lysine P62875_K67: sol, 231
T1 construct: isoTOP-ABPP experiments performed in cell lysates (in vitro); endogenous in cells; host or cells: soluble proteome of human cancer cell lines (MDA-MB-231, Ramos, Jurkat)
Protocol: (§1) In vitro covalent fragment treatment for isoTOP-ABPP. All compounds were made up as solutions in DMSO (100×) and were used at a final concentration of 50 μM for activated esters and 100 μM for guanidinylating agents. For each profiling sample, 0.5 ml of lysate was treated with 5 μl of the 100× compound stock solution or 5 μl of DMSO. Samples were treated with activated esters for
(§2) STP-alkyne labeling and click chemistry. For concentration-dependent reactivity measurements by isoTOP-ABPP, 0.5 ml proteome aliquots were treated at ambient temperature with 1 mM STP-alkyne 1 (5 μl of 100 mM stock in DMSO) and 0.1 mM STP alkyne 1 (5 μl of 10 mM stock in DMSO), respectively. For competitive isoTOP-ABPP, after in vitro fragment treatment (detailed above), the samples were labeled for 1 h at ambient temperature with 0.1 mM STP-alkyne 1 (5 μl of 10 mM stock in DMSO). Samples were conjugated by copper-mediated azide-alkyne cycloaddition (CuAAC) to either the light (1 mM STP-alkyne or fragment treated) or heavy (0.1 mM STP-alkyne or DMSO treated) TEV tags (10 μl of 5 mM stocks in DMSO, final concentration=100 μM) using tris(2-carboxyethyl)phosphine hydrochloride
(§3) R value calculation and processing. The ratios of light and heavy MS1 peaks for each unique peptide were quantified with a CIMAGE software using default parameters (3 MS1 acquisitions per peak and signal to noise threshold set to 2.5). For reactivity measurements by isoTOP-ABPP, the R value was calculated from the ratio of MS1 peak areas, comparing the 1 mM STP alkyne sample (light TEV tag) with the 0.1 mM STP alkyne sample (heavy TEV tag). For competitive isoTOP-ABPP, the R value was calculated from the ratio of MS1 peak areas, comparing the DMSO treated sample (heavy TEV tag) with the compound treated sample (light TEV tag). […] Ratios for unique peptide entries are calculated for each experiment; overlapping peptides with the same modified lysine (for example, different charge states, MudPIT chromatographic steps or tryptic termini) are grouped together and the median ratio is reported as the final ratio (R). The peptide ratios reported by CIMAGE were further filtered to ensure the removal or correction of low-quality ratios in each individual data set. The quality filters applied were the following: removal of half tryptic peptides; for ratios with high standard deviations from the median (90% of the median or above) the lowest ratio was taken instead of the median; removal of peptides with R=20 and only a single MS2 event triggered during the elution of the parent ion; manual annotation of all the peptides with ratios of 20, removing any peptides with low quality elution profiles that remained after the previous curation steps (only done for competitive isoTOP-ABPP).
(§4) Cross-data processing for fragment screening. For compound treated samples, biological replicates of the same condition were averaged, if the standard deviation was below 60% of the mean; otherwise, for lysines with at least one R value <4 for a particular compound, the lowest value of the ratio set was taken. For lysines, where all R values for a particular compound were ≥4, the average was reported. For peptides containing several possible modified lysines, the lysine with the highest number of quantification events was used for analysis and the remaining, redundant peptides were reported as alternative modification sites. Peptides included in the aggregate dataset (those used for further bioinformatics and statistical analyses) were required to have been quantified in 2 experiments for competitive isoTOP-ABPP. Lysines were categorized as liganded, if they had at least one ratio R≥4 (hit fragments). For liganded lysines with R=20 for all liganding events, lysines were required to have been quantified with R=20 in two separate experiments and were further required to have been quantified with R<20 in one additional experiment.

[2] = molecular target: T2, NUDT2 Bis(5-nucleosyl)-tetraphosphatase (Homo sapiens, UniProt P50583); design: key to isoTOP-ABPP reactivity ratio at lysine P50583_K89: R = MS1 peak area ratio, DMSO (heavy) / compound-treated (light); details: 50 uM, in vitro; for isoTOP-ABPP ratio (R) at liganded lysine P50583_K89: sol, 231
T2 construct: isoTOP-ABPP experiments performed in cell lysates (in vitro); endogenous in cells
Protocol: as §1, §2, §3, §4

[3] = molecular target: T3, SRP54 Signal recognition particle 54 kDa protein (Homo sapiens, UniProt P61011); design: key to isoTOP-ABPP reactivity ratio at lysine P61011_K81: R = MS1 peak area ratio, DMSO (heavy) / compound-treated (light); capped at 20; details: 50 uM, in vitro; for isoTOP-ABPP ratio (R) at liganded lysine P61011_K81: sol, 231
T3 construct: isoTOP-ABPP experiments performed in cell lysates (in vitro); endogenous in cells; host or cells: soluble proteome of human cancer cell lines (MDA-MB-231, Ramos, Jurkat)
Protocol: as §1, §2, §3, §4

[4] = molecular target: T4, PSME3 Proteasome activator complex subunit 3 (Homo sapiens, UniProt P61289); design: key to isoTOP-ABPP reactivity ratio at lysine P61289_K237: R = MS1 peak area ratio, DMSO (heavy) / compound-treated (light); key to isoTOP-ABPP reactivity ratio at lysine P61289_K12: R = MS1 peak area ratio, DMSO (heavy) / compound-treated (light); capped at 20; details: 50 uM, in vitro; for R value (DMSO/fragment) for probe 1 labeling / isoTOP-ABPP reactivity ratio at lysine P61289_K12 / isoTOP-ABPP reactivity ratio at lysine P61289_K237: 231 sol; for isoTOP-ABPP ratio (R) at liganded lysine P61289_K12 / isoTOP-ABPP ratio (R) at liganded lysine P61289_K237: sol, 231
T4 construct: isoTOP-ABPP experiments performed in cell lysates (in vitro); endogenous in cells; host or cells: soluble proteome of human cancer cell lines (MDA-MB-231, Ramos, Jurkat)
Protocol: as §1, §2, §3, §4

[5] = molecular target: T5, MAP1LC3B Microtubule-associated proteins 1A/1B light chain (Homo sapiens, UniProt Q9GZQ8); design: key to isoTOP-ABPP reactivity ratio at lysine Q9GZQ8_K51: R = MS1 peak area ratio, DMSO (heavy) / compound-treated (light); details: 50 uM, in vitro; for isoTOP-ABPP ratio (R) at liganded lysine Q9GZQ8_K51: sol, 231
T5 construct: isoTOP-ABPP experiments performed in cell lysates (in vitro); endogenous in cells; host or cells: soluble proteome of human cancer cell lines (MDA-MB-231; Ramos and Jurkat also prepared)
Protocol: as §1, §2, §3, §4

[6] = molecular target: T6, ACBD3 Golgi resident protein GCP60 (Homo sapiens, UniProt Q9H3P7); design: key to isoTOP-ABPP reactivity ratio at lysine Q9H3P7_K117: R = MS1 peak area ratio, DMSO (heavy) / compound-treated (light); details: 50 uM, in vitro; for isoTOP-ABPP ratio (R) at liganded lysine Q9H3P7_K117: sol, 231
T6 construct: isoTOP-ABPP experiments performed in cell lysates (in vitro); endogenous in cells; host or cells: soluble proteome of human cancer cell lines (MDA-MB-231; Ramos and Jurkat also prepared)
T6 sequence (Q9H3P7 1-528): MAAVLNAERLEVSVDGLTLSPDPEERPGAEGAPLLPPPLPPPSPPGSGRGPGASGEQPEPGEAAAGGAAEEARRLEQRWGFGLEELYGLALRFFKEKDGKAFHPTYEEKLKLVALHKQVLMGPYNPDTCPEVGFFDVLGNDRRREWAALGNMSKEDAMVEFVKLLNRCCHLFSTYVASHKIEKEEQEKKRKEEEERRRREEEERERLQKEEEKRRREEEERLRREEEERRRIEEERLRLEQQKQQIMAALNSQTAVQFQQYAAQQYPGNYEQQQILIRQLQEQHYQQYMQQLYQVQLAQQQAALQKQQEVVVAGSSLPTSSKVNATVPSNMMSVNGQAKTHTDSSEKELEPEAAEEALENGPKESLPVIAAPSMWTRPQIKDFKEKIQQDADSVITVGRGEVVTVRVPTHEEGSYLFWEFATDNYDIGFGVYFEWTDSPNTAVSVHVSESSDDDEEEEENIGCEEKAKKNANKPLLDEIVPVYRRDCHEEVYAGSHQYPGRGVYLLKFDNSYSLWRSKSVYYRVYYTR
Protocol: as §1, §2, §3, §4

T3 sequence (P61011 whole entry): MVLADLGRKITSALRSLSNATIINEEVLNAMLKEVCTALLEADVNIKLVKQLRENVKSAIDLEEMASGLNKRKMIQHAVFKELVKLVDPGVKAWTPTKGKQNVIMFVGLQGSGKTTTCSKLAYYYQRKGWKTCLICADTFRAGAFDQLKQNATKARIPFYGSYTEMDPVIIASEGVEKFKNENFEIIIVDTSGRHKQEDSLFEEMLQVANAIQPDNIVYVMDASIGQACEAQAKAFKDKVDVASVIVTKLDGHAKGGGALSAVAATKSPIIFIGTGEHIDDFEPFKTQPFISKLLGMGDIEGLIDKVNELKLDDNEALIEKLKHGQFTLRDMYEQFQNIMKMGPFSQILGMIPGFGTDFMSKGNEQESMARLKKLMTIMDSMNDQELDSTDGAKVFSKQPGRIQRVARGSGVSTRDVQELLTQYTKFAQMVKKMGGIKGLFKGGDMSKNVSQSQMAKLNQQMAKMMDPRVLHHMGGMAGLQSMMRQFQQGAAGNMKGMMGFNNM
T2 sequence (P50583 whole entry): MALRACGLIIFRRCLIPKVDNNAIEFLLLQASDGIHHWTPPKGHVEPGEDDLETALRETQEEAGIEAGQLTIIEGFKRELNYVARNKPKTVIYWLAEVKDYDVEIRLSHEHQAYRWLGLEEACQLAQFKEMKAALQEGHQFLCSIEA
T4 sequence (P61289 whole entry, the tested form may be a part, one chain of several): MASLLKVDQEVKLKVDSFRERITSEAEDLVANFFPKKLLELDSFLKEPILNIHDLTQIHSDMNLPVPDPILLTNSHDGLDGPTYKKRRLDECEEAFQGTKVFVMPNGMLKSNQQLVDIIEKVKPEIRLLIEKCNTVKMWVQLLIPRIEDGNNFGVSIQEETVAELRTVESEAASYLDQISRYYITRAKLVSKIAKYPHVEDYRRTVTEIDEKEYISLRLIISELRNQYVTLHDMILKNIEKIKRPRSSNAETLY

Row | SMILES | isoTOP-ABPP reactivity ratio at lysine P62875_K67 ([1]; 231 sol) | isoTOP-ABPP reactivity ratio at lysine P50583_K89 ([2]; 231 sol) | isoTOP-ABPP reactivity ratio at lysine P61011_K81 ([3]; 231 sol) | isoTOP-ABPP reactivity ratio at lysine P61289_K12 [4] | isoTOP-ABPP reactivity ratio at lysine P61289_K237 [4] | isoTOP-ABPP reactivity ratio at lysine Q9GZQ8_K51 ([5]; 231 sol) | isoTOP-ABPP reactivity ratio at lysine Q9H3P7_K117 ([6]; 231 sol) | isoTOP-ABPP ratio (R) at liganded lysine P62875_K67 [1] | isoTOP-ABPP ratio (R) at liganded lysine P50583_K89 [2] | isoTOP-ABPP ratio (R) at liganded lysine P61011_K81 [3] | isoTOP-ABPP ratio (R) at liganded lysine Q9GZQ8_K51 [5] | isoTOP-ABPP ratio (R) at liganded lysine Q9H3P7_K117 [6] | also measured
1 | Cn1cc(CC(=O)Oc2c(F)c(F)c(F)c(F)c2F)c2ccccc21 [fragment 22, Pentafluorophenyl 2-(1-methyl-1H-indol-3-yl)acetate] |  |  |  |  |  |  |  |  |  |  |  |  | R value (DMSO/fragment) for probe 1 labeling ([1]; P62875_K67, 231 sol): 0.9; R value (DMSO/fragment) for probe 1 labeling ([2]; P50583_K89, 231 sol): 0.9; R value (DMSO/fragment) for probe 1 labeling ([3]; P61011_K81, 231 sol): 0.9; R value (DMSO/fragment) for probe 1 labeling ([4]; P61289_K12): 0.9; R value (DMSO/fragment) for probe 1 labeling ([4]; P61289_K237): 1.1; R value (DMSO/fragment) for probe 1 labeling ([5]; Q9GZQ8_K51, 231 sol): 1.2; R value (DMSO/fragment) for probe 1 labeling ([6]; Q9H3P7_K117, 231 sol): 1.2
2 | O=C(Oc1c(F)c(F)c(F)c(F)c1F)c1ccc2ccccc2n1 [fragment 25, Pentafluorophenyl quinoline-2-carboxylate] | 1.0 | 1.0 | 0.8 | 0.9 | 0.5 | 0.9 | 1.7 |  |  |  |  |  | 
3 | O=C(CCc1coc2cc(F)ccc2c1=O)Oc1c(F)c(F)c(F)c(F)c1F [fragment 26, Pentafluorophenyl 3-(7-fluoro-4-oxo-4H-chromen-3-yl)propanoate] | 1.1 | 0.9 | 1.0 | 0.9 | 1.1 | 1.2 | 1.8 |  |  |  |  |  | 
4 | CCn1cc(C(=O)Oc2c(F)c(F)c(F)c(F)c2F)c(=O)c2ccc(C)nc21 [fragment 28, Pentafluorophenyl 1-ethyl-7-methyl-4-oxo-1,4-dihydro-1,8-naphthyridine-3-carboxylate] | 1.0 | 1.0 | 0.8 | 1.0 | 0.6 | 1.0 | 1.1 |  |  |  |  |  | 
5 | O=C(Oc1ccc([N+](=O)[O-])cc1[N+](=O)[O-])C(c1ccccc1)c1ccccc1 [fragment 30, 2,4-Dinitrophenyl 2,2-diphenylacetate] | 1.8 | 1.1 | 20.0 |  | 4.3 | 1.2 | 1.7 |  |  |  |  |  | 
6 | O=C(Oc1ccc([N+](=O)[O-])cc1[N+](=O)[O-])c1cc(C(F)(F)F)cc(C(F)(F)F)c1 [fragment 31, 2,4-Dinitrophenyl 3,5-bis(trifluoromethyl)benzoate] | 0.9 | 0.8 | 0.9 | 1.1 | 1.1 | 1.1 | 1.1 |  |  |  |  |  | 
7 | O=C(Oc1ccc([N+](=O)[O-])cc1[N+](=O)[O-])C1CCN(C(=O)OCc2ccccc2)CC1 [fragment 34, 1-Benzyl 4-(2,4-dinitrophenyl) piperidine-1,4-dicarboxylate] |  |  |  |  |  |  |  | 1.0 | 1.0 | 0.8 | 1.0 | 1.1 | isoTOP-ABPP ratio (R) at liganded lysine P61289_K12 [4]: 1.4
8 | O=C(Oc1ccc([N+](=O)[O-])cc1[N+](=O)[O-])c1ccc2ccccc2n1 [fragment 35, 2,4-Dinitrophenyl quinoline-2-carboxylate] |  |  |  |  |  |  |  | 0.9 | 1.6 | 0.8 | 1.0 | 1.3 | isoTOP-ABPP ratio (R) at liganded lysine P61289_K12 [4]: 0.7; isoTOP-ABPP ratio (R) at liganded lysine P61289_K237 [4]: 0.8
9 | O=C(CCc1coc2cc(F)ccc2c1=O)Oc1ccc([N+](=O)[O-])cc1[N+](=O)[O-] [fragment 36, 2,4-Dinitrophenyl 3-(7-fluoro-4-oxo-4H-chromen-3-yl)propanoate] |  |  |  |  |  |  |  | 4.1 | 0.9 | 1.3 | 0.8 | 1.4 | isoTOP-ABPP ratio (R) at liganded lysine P61289_K237 [4]: 1.4

— patent US20210255193A1, “LYSINE REACTIVE PROBES AND USES THEREOF” (The Scripps Research Institute, priority 2017, published 2021)
